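In this assay, cells in 96-well plates receive the compound at five concentrations for 48 hours. Endpoints are linearly interpolated between the surrounding concentrations. TGI: concentration producing complete growth inhibition.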
How the values were obtained:
Assay in all cases: NCI-60 cell line screen, 48 h
[1] = system: 786-0 renal
[2] = system: A498 renal
[3] = system: A549 NSCLC
[4] = system: ACHN renal
[5] = system: CAKI-1 renal
[6] = system: CCRF-CEM leukemia
[7] = system: COLO 205 colon
[8] = system: DLD-1 colon
[9] = system: DMS 114 small cell lung
[10] = system: DMS 273 small cell lung
[11] = system: EKVX NSCLC
[12] = system: HCT-116 colon
[13] = system: HCT-15 colon
[14] = system: HL-60(TB) leukemia
[15] = system: HOP-18 NSCLC
[16] = system: HOP-62 NSCLC
[17] = system: HOP-92 NSCLC
[18] = system: HT29 colon
[19] = system: IGROV1 ovarian
[20] = system: K-562 leukemia
[21] = system: KM20L2 colon
[22] = system: LOX IMVI melanoma
[23] = system: LXFL 529 NSCLC
[24] = system: M14 melanoma
[25] = system: M19-MEL melanoma
[26] = system: MOLT-4 leukemia
[27] = system: NCI-H23 lung
[28] = system: NCI-H460 lung
[29] = system: NCI-H522 lung
[30] = system: OVCAR-8 ovarian
[31] = system: RPMI-8226 leukemia
[32] = system: RXF 393 renal
[33] = system: RXF-631 renal
[34] = system: SF-268 CNS
[35] = system: SF-539 CNS
[36] = system: SK-MEL-28 melanoma
[37] = system: SK-MEL-5 melanoma
[38] = system: SK-OV-3 ovarian
[39] = system: SN12C renal
[40] = system: SW-620 colon
[41] = system: TK-10 renal
[42] = system: U251 CNS
[43] = system: UACC-62 melanoma
[44] = system: UO-31 renal
[45] = system: KM12 colon
[46] = system: MALME-3M melanoma
[47] = system: NCI-H226 lung
[48] = system: OVCAR-3 ovarian
[49] = system: OVCAR-4 ovarian
[50] = system: OVCAR-5 ovarian
[51] = system: SF-295 CNS
[52] = system: SK-MEL-2 melanoma
[53] = system: SNB-19 CNS
[54] = system: SNB-75 CNS
[55] = system: SNB-78 CNS
[56] = system: SR leukemia
[57] = system: UACC-257 melanoma
[58] = system: HCC-2998 colon

Measured: TGI

O=[P+](O)c1ccsc1
not listed: [45] | [46] | [47] | [48] | [49] | [50] | [51] | [52] | [53] | [54] | [55] | [56] | [57] | [58]
> 100 µM: all other assays above

CSc1nc(NC2OC(COC(C)=O)C(OC(C)=O)C(OC(C)=O)C2OC(C)=O)c2c(n1)OCC2=O (configuration not stated)
not listed: [10] | [11] | [32] | [58]
> 100 µM: all other assays above

CC12CCC3(OCCO3)C(OC(=O)c3ccccc3)=C1CCC21OCCO1 (configuration not stated)
not listed: [20] | [27] | [52]
> 100 µM: all other assays above

Cc1cccc(C)c1NC(=O)C1C(=O)N(c2c(C)cccc2C)C(=O)/C1=N\N (configuration not stated)
not listed: [9] | [28] | [45] | [55]
> 100 µM: all other assays above

Source: PubChem BioAssay (NCI)
